Earlier results, collected in patent US20010031278A1, “Sustained release oxycodone formulations with no fed/fast effect” (priority 1996, published 2001).

Conditions: gastric fluid (pH about 1) vs intestinal fluid (pH about 7.5)

## COc1ccc2c3c1O[C@H]1C(=O)CC[C@@]4(O)[C@@H](C2)N(C)CC[C@]314.Cl [Oxycodone hydrochloride]
  solubility at low vs high pH: more soluble in gastric fluid (pH about 1) than in intestinal fluid (pH about 7.5)
